Measured values taken from patent US20250143299A1, “METHODS AND COMPOSITIONS FOR CONTROLLING PESTS IN VEGETABLES” (Globachem NV, priority 2022, published 2025).

Legend:
Format in all cases: in vivo
Spodoptera exigua = assay: Example 1 tomato plot trial, Spodoptera exigua (beet armyworm) control; conditions: appl. A, 15 DAA
Description: Tomato—Spodoptera exigua (Beet Armyworm)
(§1) Trial conducted in 4 replicates on plots of 10 plants each. Application A was made at the occurrence of the insects.
The statistical design of this study was a completely randomized blocks design including 4 replicates. The homogeneity of variance was tested for all treatments and assessment dates by means of the Bartlett's test. In order to study the effect of the applied treatments for each assessment data, means were compared using Student-Newman-Keuls (p=0.05).

Tuta absoluta = assay: Example 2 tomato trial, Tuta absoluta (tomato leafminer) control; conditions: appl. AB
Description: Tomato—Tuta absoluta (Tomato Leafminer)
(§2) Trial conducted in 4 replicates on plots of 25 plants each. Application was made at the occurrence of the insects.
Insects present at the time of application: at App A 0.3/plot, at App B in untreated: 34/plot
Efficacy is assessed by checking on the leaves the % of damage caused by the insects.

Diabrotica speciosa = assay: Example 11 Trial 2 potato, Diabrotica speciosa (DIABSC) control; conditions: appl. AB
Description: Potatoes—Diabrotica speciosa (Cucurbit Beetle)—DIABSC A water volume of 400 L water/ha was used for each application. Application A made at the occurrence of the insects; application B was made 7 days later. Each plot was 15 m^2. 5.15 insects per 20 plants were present at the time of application.

Acyrthosiphon pisum = assay: Example 6 pea trial, Acyrthosiphon pisum (pea aphid) control; conditions: appl. A
Description: Peas—Acyrthosiphon pisum (Pea Aphid)
Trial conducted on peas, variety Navarro, 4 replicates per plot. Each plot was at least 12 m^2, a water volume of 200 L water per ha was used for the application.
Insects present at the time of application A: 106 aphids per 20 shoots. The stage of the crop at application A was BBCH 75-77, and at application B, (14 DAA) BBCH 79-81.

Tomato [1] = assay: Example 2 phytotoxicity, necrosis/burn (PHYNEC) on tomato; design: key: % visual leaf necrosis/discoloration vs untreated plants; conditions: appl. AB
Description: (§3) “Low Phytotoxicity” of pelargonic acid, as used herein means that the toxic effect on plants is absent or at such a level so as not to adversely impact the growth and/or yield of the plant under a given set of test conditions, e.g., at a given concentration of pelargonic acid. Phytotoxic effects may be measured in a number of different ways, for example, according to the principals set out in OEPP/EPPO Bulletin (2014) 44(3), 265-273 “PP 1/135 (4) Phytotoxicity assessment”. The phytotoxic effect on plants may be assessed visually as a function of the percentage of discoloration to the leaves and/or the appearance of necrosis. When the pelargonic acid compositions are applied to the foliage of the vegetable plants in accordance with the teachings herein, will typically result in a level of phytotoxicity of less than 20%, preferably less than 15%, more preferably less than 10% necrosis of the leaves in comparison to untreated plants. Preferred uses of the invention will typically result in phytotoxicity of 7% or less, whilst the most preferred uses will typically result in phytotoxicity of 5% or less. The above values are approximate as any purely visual assessment is likely to contain a degree of subjectivity.
as §2

Tomato [2] = assay: Example 1 phytotoxicity, general injury (PHYGEN) on tomato; conditions: appl. A
Description: as §3, §1

`CCCCCCCCC(=O)O` [PA, pelargonic acid] was tested, and the “Damage severity (1-4), plant” value (Spodoptera exigua; 650 g/ha (1 L/ha)) was 61.37 a % UNCK, the Nr damaged leaves (Spodoptera exigua; 650 g/ha (1 L/ha)) was 63.30 a % UNCK and the Nr of larvae (Spodoptera exigua; 650 g/ha (1 L/ha)) was 73.85 b % UNCK. For the same compound, the “Damage severity (1-4), plant” value (Spodoptera exigua; 1300 g/ha (2 L/ha)) was 61.01 a % UNCK, the Nr damaged leaves (Spodoptera exigua; 1300 g/ha (2 L/ha)) was 71.72 a % UNCK and the Nr of larvae (Spodoptera exigua; 1300 g/ha (2 L/ha)) was 79.47 b % UNCK. The “Damage severity (1-4), plant” value (Spodoptera exigua; 2600 g/ha (4 L/ha)) was 64.85 a % UNCK, the Nr damaged leaves (Spodoptera exigua; 2600 g/ha (4 L/ha)) was 63.54 a % UNCK and the Nr of larvae (Spodoptera exigua; 2600 g/ha (4 L/ha)) was 90.18 a % UNCK. The “# Damaged leaves” value (Tuta absoluta; 1300 g/ha (2 L/ha), 3 DAA) was 47 % UNCK, the “# Damaged leaves” value (Tuta absoluta; 1300 g/ha (2 L/ha), 3 DAB) was 31 % UNCK and the “# Damaged leaves” value (Tuta absoluta; 1300 g/ha (2 L/ha), 7 DAA) was 68 % UNCK. For the same compound, the “# Damaged leaves” value (Tuta absoluta; 1300 g/ha (2 L/ha), 7 DAB) was 32 % UNCK, the “# Damaged leaves” value (Tuta absoluta; 1300 g/ha (2 L/ha), 14 DAA) was 70 % UNCK and the “# Damaged leaves” value (Tuta absoluta; 1950 g/ha (3 L/ha), 3 DAA) was 51 % UNCK. The “# Damaged leaves” value (Tuta absoluta; 1950 g/ha (3 L/ha), 3 DAB) was 42 % UNCK, the “# Damaged leaves” value (Tuta absoluta; 1950 g/ha (3 L/ha), 7 DAA) was 69 % UNCK and the “# Damaged leaves” value (Tuta absoluta; 1950 g/ha (3 L/ha), 7 DAB) was 46 % UNCK. The “# Damaged leaves” value (Tuta absoluta; 1950 g/ha (3 L/ha), 14 DAA) was 72 % UNCK, the “# Damaged leaves” value (Tuta absoluta; 2600 g/ha (4 L/ha), 3 DAA) was 58 % UNCK and the “# Damaged leaves” value (Tuta absoluta; 2600 g/ha (4 L/ha), 3 DAB) was 47 % UNCK. The “# Damaged leaves” value (Tuta absoluta; 2600 g/ha (4 L/ha), 7 DAA) was 74 % UNCK, the “# Damaged leaves” value (Tuta absoluta; 2600 g/ha (4 L/ha), 7 DAB) was 42 % UNCK and the “# Damaged leaves” value (Tuta absoluta; 2600 g/ha (4 L/ha), 14 DAA) was 78 % UNCK. The “# Damaged leaves” value (Tuta absoluta; 5200 g/ha (8 L/ha), 3 DAA) was 59 % UNCK, the “# Damaged leaves” value (Tuta absoluta; 5200 g/ha (8 L/ha), 3 DAB) was 42 % UNCK and the “# Damaged leaves” value (Tuta absoluta; 5200 g/ha (8 L/ha), 7 DAA) was 75 % UNCK. The “# Damaged leaves” value (Tuta absoluta; 5200 g/ha (8 L/ha), 7 DAB) was 49 % UNCK, the “# Damaged leaves” value (Tuta absoluta; 5200 g/ha (8 L/ha), 14 DAA) was 75 % UNCK and the “# Insects, 20 plants” value (Diabrotica speciosa; 487.5 g/ha (0.75 L/ha), 3 DAA) was 38.10b % UNCK. For the same compound, the “# Insects, 20 plants” value (Diabrotica speciosa; 487.5 g/ha (0.75 L/ha), 3 DAB) was 25.00ab % UNCK, the “# Insects, 20 plants” value (Diabrotica speciosa; 650 g/ha (1 L/ha), 3 DAA) was 61.90bc % UNCK and the “# Insects, 20 plants” value (Diabrotica speciosa; 650 g/ha (1 L/ha), 3 DAB) was 25.00ab % UNCK. For the same compound, the “# Insects, 20 plants” value (Diabrotica speciosa; 975 g/ha (1.5 L/ha), 7 DAA) was 100.00d % UNCK, the “# Insects, 20 plants” value (Diabrotica speciosa; 975 g/ha (1.5 L/ha), 7 DAB) was 100.00c % UNCK and the “# Insects, 20 plants” value (Diabrotica speciosa; 975 g/ha (1.5 L/ha), 10 DAB) was 100.00c % UNCK. For the same compound, the “COUINS (count of insects), 20 shoots” value (Acyrthosiphon pisum; 585 g/ha (0.9 L/ha), 3 DAA (1st column)) was 31.44 % UNCK, the “COUINS (count of insects), 20 shoots” value (Acyrthosiphon pisum; 585 g/ha (0.9 L/ha), 3 DAA (2nd column)) was 31.34 % UNCK and the “COUINS (count of insects), 20 shoots” value (Acyrthosiphon pisum; 585 g/ha (0.9 L/ha), 3 DAA (3rd column)) was 30.01 % UNCK. The “COUINS (count of insects), 20 shoots” value (Acyrthosiphon pisum; 975 g/ha (1.5 L/ha), 3 DAA (1st column)) was 34.03 % UNCK, the “COUINS (count of insects), 20 shoots” value (Acyrthosiphon pisum; 975 g/ha (1.5 L/ha), 3 DAA (2nd column)) was 33.84 % UNCK and the “COUINS (count of insects), 20 shoots” value (Acyrthosiphon pisum; 975 g/ha (1.5 L/ha), 3 DAA (3rd column)) was 35.76 % UNCK. For the same compound, the “COUINS (count of insects), 20 shoots” value (Acyrthosiphon pisum; 1300 g/ha (2.0 L/ha), 3 DAA (1st column)) was 52.54 % UNCK, the “COUINS (count of insects), 20 shoots” value (Acyrthosiphon pisum; 1300 g/ha (2.0 L/ha), 3 DAA (2nd column)) was 52.47 % UNCK and the “COUINS (count of insects), 20 shoots” value (Acyrthosiphon pisum; 1300 g/ha (2.0 L/ha), 3 DAA (3rd column)) was 53.62 % UNCK. For the same compound, the “COUINS (count of insects), 20 shoots” value (Acyrthosiphon pisum; 2600 g/ha (4.0 L/ha), 3 DAA (1st column)) was 65.75 % UNCK, the “COUINS (count of insects), 20 shoots” value (Acyrthosiphon pisum; 2600 g/ha (4.0 L/ha), 3 DAA (2nd column)) was 65.86 % UNCK and the “COUINS (count of insects), 20 shoots” value (Acyrthosiphon pisum; 2600 g/ha (4.0 L/ha), 3 DAA (3rd column)) was 65.31 % UNCK. For the same compound, the “Phytotoxicity - Necrosis/burn (PHYNEC)” value (Tomato [1]; 1300 g/ha (2 L/ha), 3 DAA) was 0, the “Phytotoxicity - Necrosis/burn (PHYNEC)” value (Tomato [1]; 1300 g/ha (2 L/ha), 7 DAA) was 0 and the “Phytotoxicity - Necrosis/burn (PHYNEC)” value (Tomato [1]; 1300 g/ha (2 L/ha), 7 DAB) was 0. For the same compound, the “Phytotoxicity - Necrosis/burn (PHYNEC)” value (Tomato [1]; 1300 g/ha (2 L/ha), 14 DAA) was 0, the “Phytotoxicity - Necrosis/burn (PHYNEC)” value (Tomato [1]; 1950 g/ha (3 L/ha), 3 DAA) was 0 and the “Phytotoxicity - Necrosis/burn (PHYNEC)” value (Tomato [1]; 1950 g/ha (3 L/ha), 7 DAA) was 0. The “Phytotoxicity - Necrosis/burn (PHYNEC)” value (Tomato [1]; 1950 g/ha (3 L/ha), 7 DAB) was 0, the “Phytotoxicity - Necrosis/burn (PHYNEC)” value (Tomato [1]; 1950 g/ha (3 L/ha), 14 DAA) was 0 and the “Phytotoxicity - Necrosis/burn (PHYNEC)” value (Tomato [1]; 2600 g/ha (4 L/ha), 3 DAA) was 0. For the same compound, the “Phytotoxicity - Necrosis/burn (PHYNEC)” value (Tomato [1]; 2600 g/ha (4 L/ha), 7 DAA) was 0, the “Phytotoxicity - Necrosis/burn (PHYNEC)” value (Tomato [1]; 2600 g/ha (4 L/ha), 7 DAB) was 0 and the “Phytotoxicity - Necrosis/burn (PHYNEC)” value (Tomato [1]; 2600 g/ha (4 L/ha), 14 DAA) was 0. The “Phytotoxicity - Necrosis/burn (PHYNEC)” value (Tomato [1]; 5200 g/ha (8 L/ha), 3 DAA) was 0, the “Phytotoxicity - Necrosis/burn (PHYNEC)” value (Tomato [1]; 5200 g/ha (8 L/ha), 7 DAA) was 0 and the “Phytotoxicity - Necrosis/burn (PHYNEC)” value (Tomato [1]; 5200 g/ha (8 L/ha), 7 DAB) was 0. The “Phytotoxicity - Necrosis/burn (PHYNEC)” value (Tomato [1]; 5200 g/ha (8 L/ha), 14 DAA) was 0, the “Phytotoxicity - General Injury (PHYGEN)” value (Tomato [2]; 650 g/ha (1 L/ha), 0 DAA) was 0% and the “Phytotoxicity - General Injury (PHYGEN)” value (Tomato [2]; 650 g/ha (1 L/ha), 2 DAA) was 0%. The “Phytotoxicity - General Injury (PHYGEN)” value (Tomato [2]; 650 g/ha (1 L/ha), 8 DAA) was 0%, the “Phytotoxicity - General Injury (PHYGEN)” value (Tomato [2]; 650 g/ha (1 L/ha), 15 DAA) was 0% and the “Phytotoxicity - General Injury (PHYGEN)” value (Tomato [2]; 1300 g/ha (2 L/ha), 0 DAA) was 0%. The “Phytotoxicity - General Injury (PHYGEN)” value (Tomato [2]; 1300 g/ha (2 L/ha), 2 DAA) was 0%, the “Phytotoxicity - General Injury (PHYGEN)” value (Tomato [2]; 1300 g/ha (2 L/ha), 8 DAA) was 0% and the “Phytotoxicity - General Injury (PHYGEN)” value (Tomato [2]; 1300 g/ha (2 L/ha), 15 DAA) was 0%. The “Phytotoxicity - General Injury (PHYGEN)” value (Tomato [2]; 2600 g/ha (4 L/ha), 0 DAA) was 0%, the “Phytotoxicity - General Injury (PHYGEN)” value (Tomato [2]; 2600 g/ha (4 L/ha), 2 DAA) was 0% and the “Phytotoxicity - General Injury (PHYGEN)” value (Tomato [2]; 2600 g/ha (4 L/ha), 8 DAA) was 0%. For the same compound, the “Phytotoxicity - General Injury (PHYGEN)” value (Tomato [2]; 2600 g/ha (4 L/ha), 15 DAA) was 0%.
